Data: ChEMBL document CHEMBL1147649, “Design and synthesis of potent beta-secretase (BACE1) inhibitors with P1' carboxylic acid bioisosteres” (Bioorg Med Chem Lett, 2006)
pIC50: −log10 of the molar value.

Key:
Beta-secretase 1 [1] = biological target: T1, Beta-secretase 1 (Homo sapiens, UniProt P56817); test: Inhibition of BACE1 at 2 uM
Beta-secretase 1 [2] = biological target: T1, Beta-secretase 1; test: Inhibition of BACE1 at 0.2 uM
Beta-secretase 1 [3] = biological target: T1, Beta-secretase 1; test: Inhibition of BACE1

T1 sequence (P56817 whole entry): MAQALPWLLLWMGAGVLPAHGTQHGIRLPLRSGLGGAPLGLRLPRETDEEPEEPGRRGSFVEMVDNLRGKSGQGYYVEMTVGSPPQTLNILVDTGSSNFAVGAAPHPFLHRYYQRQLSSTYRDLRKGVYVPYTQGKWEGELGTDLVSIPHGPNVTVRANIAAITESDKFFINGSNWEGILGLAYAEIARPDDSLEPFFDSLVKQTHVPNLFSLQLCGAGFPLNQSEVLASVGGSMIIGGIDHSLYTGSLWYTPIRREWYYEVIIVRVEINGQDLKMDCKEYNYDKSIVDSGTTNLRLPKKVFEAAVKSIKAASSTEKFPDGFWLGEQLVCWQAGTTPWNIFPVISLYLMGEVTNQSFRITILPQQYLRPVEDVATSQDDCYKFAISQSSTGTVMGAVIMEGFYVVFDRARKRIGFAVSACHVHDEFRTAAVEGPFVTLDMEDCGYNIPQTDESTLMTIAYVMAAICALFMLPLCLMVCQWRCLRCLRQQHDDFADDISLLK

| inhibition (Beta-secretase 1 [1]) [%] | inhibition (Beta-secretase 1 [2]) [%] | pIC50 (Beta-secretase 1 [3]) | Compound |
| --- | --- | --- | --- |
| 91.9 | 63.2 |  | CC(C)C[C@H](NC(=O)[C@@H](NC(=O)[C@@H](N)CCC(=O)O)C(C)C)C(=O)N[C@@H](Cc1ccccc1)[C@@H](O)C(=O)Nc1cccc(-c2nsc(=O)[nH]2)c1 |
|  | 44.4 |  | CC(C)C[C@H](NC(=O)[C@@H](NC(=O)[C@@H](N)CCC(=O)O)C(C)C)C(=O)N[C@@H](Cc1ccccc1)[C@@H](O)C(=O)Nc1cccc(C(=O)O)c1 |
| 29.2 |  |  | CC(C)C[C@H](NC(=O)[C@@H](NC(=O)[C@@H](N)CCC(=O)O)C(C)C)C(=O)N[C@@H](Cc1ccccc1)[C@@H](O)C(=O)Nc1cccc(C(=N)N)c1 |
| 94.4 | 66.3 |  | CC(C)C[C@H](NC(=O)[C@@H](NC(=O)[C@@H](N)CCC(=O)O)C(C)C)C(=O)N[C@@H](Cc1ccccc1)[C@@H](O)C(=O)Nc1cccc(-c2noc(=O)[nH]2)c1 |
| 97.3 | 78.1 |  | CC(C)C[C@H](NC(=O)[C@@H](NC(=O)[C@@H](N)CNC(=O)c1nn[nH]n1)C(C)C)C(=O)N[C@@H](Cc1ccccc1)[C@@H](O)C(=O)Nc1cccc(C(N)=O)c1 |
| 92.2 | 73.7 |  | CC(C)C[C@H](NC(=O)[C@@H](NC(=O)[C@@H](N)CCC(=O)O)C(C)C)C(=O)N[C@@H](Cc1ccccc1)[C@@H](O)C(=O)Nc1cccc(-c2nn[nH]n2)c1 |
| 62.1 |  |  | CC(C)C[C@H](NC(=O)[C@@H](NC(=O)[C@@H](N)CCC(=O)O)C(C)C)C(=O)N[C@@H](Cc1ccccc1)[C@@H](O)C(=O)Nc1cccc(C(N)=O)c1 |

Continued, compound first:

| Compound | inhibition (Beta-secretase 1 [1]) [%] | inhibition (Beta-secretase 1 [2]) [%] | pIC50 (Beta-secretase 1 [3]) |
| --- | --- | --- | --- |
| CC(C)C[C@H](NC(=O)[C@@H](NC(=O)[C@@H](N)CCC(=O)O)C(C)C)C(=O)N[C@@H](Cc1ccccc1)[C@@H](O)C(=O)Nc1cccc(-c2n[nH]c(=S)n2C)c1 | 74.2 |  |  |
| CC(C)C[C@H](NC(=O)[C@@H](NC(=O)[C@@H](N)CCC(=O)O)C(C)C)C(=O)N[C@@H](Cc1ccccc1)[C@@H](O)C(=O)Nc1cc(-c2nn[nH]n2)cc(-c2nn[nH]n2)c1 | 99.7 | 94 | 8.19 |
| CC(C)C[C@H](NC(=O)[C@@H](NC(=O)[C@@H](N)CNC(=O)c1nnn[nH]1)C(C)C)C(=O)N[C@@H](Cc1ccccc1)[C@@H](O)C(=O)Nc1cc(-c2nnn[nH]2)cc(-c2nnn[nH]2)c1 |  |  | 8.92 |
| CC(C)C[C@H](NC(=O)[C@@H](NC(=O)[C@@H](N)CNC(=O)c1nnn[nH]1)C(C)C)C(=O)N[C@@H](Cc1ccccc1)[C@@H](O)C(=O)Nc1cccc(-c2nnn[nH]2)c1 |  |  | 8.32 |
| CC(C)C[C@H](NC(=O)[C@@H](NC(=O)[C@@H](N)CCC(=O)O)C(C)C)C(=O)N[C@@H](Cc1ccccc1)[C@@H](O)C(=O)Nc1cc(C(=O)O)cc(C(=O)O)c1 | 98.3 | 84.3 |  |
| CC(C)C[C@H](NC(=O)[C@@H](NC(=O)[C@@H](N)CNC(=O)c1nnn[nH]1)C(C)C)C(=O)N[C@@H](Cc1ccccc1)[C@@H](O)C(=O)Nc1cccc(-c2nc(=S)o[nH]2)c1 |  |  | 8.19 |
| CC(C)C[C@H](NC(=O)[C@@H](NC(=O)[C@@H](N)CCC(=O)O)C(C)C)C(=O)N[C@@H](Cc1ccccc1)[C@@H](O)C(=O)Nc1cccc(-c2noc(=S)[nH]2)c1 | 94.5 | 68.4 |  |
| CC(C)C[C@H](NC(=O)[C@@H](NC(=O)[C@@H](N)CNC(=O)c1nn[nH]n1)C(C)C)C(=O)N[C@@H](Cc1ccccc1)[C@@H](O)C(=O)Nc1cc(-c2nn[nH]n2)cc(-c2nn[nH]n2)c1 | 100 | 100 |  |
| CC(C)C[C@H](NC(=O)[C@@H](NC(=O)[C@@H](N)CCC(=O)O)C(C)C)C(=O)N[C@@H](Cc1ccccc1)[C@@H](O)C(=O)Nc1cccc(-c2n[nH]c(=S)o2)c1 | 92 | 72.3 |  |
| CC(C)C[C@H](NC(=O)[C@@H](NC(=O)[C@@H](N)CNC(=O)c1nn[nH]n1)C(C)C)C(=O)N[C@@H](Cc1ccccc1)[C@@H](O)C(=O)Nc1cccc(-c2noc(O)n2)c1 | 100 | 94.2 | 8.18 |
| CC(C)C[C@H](NC(=O)[C@@H](NC(=O)[C@@H](N)CNC(=O)c1nn[nH]n1)C(C)C)C(=O)N[C@@H](Cc1ccccc1)[C@@H](O)C(=O)Nc1cccc(-c2noc(S)n2)c1 | 99.8 | 97.2 |  |
